PMC4793533 (BMC obesity, 2016)

Key:
[1] = cited from earlier work
[2] = Pharmacokinetics of radioactivity in plasma and blood after a single oral dose of [9-14C]-oleic acid, with or without formoline L112 pre-treatment; type: in vivo, female Göttingen minipigs; conditions: untreated minipigs (group A), single oral 10 mg/kg [9-14C]-oleic acid
Method: The study consisted of two treatment groups, each consisting of six female Göttingen minipigs. Group A served as the untreated group (control) and group B was pre-treated with polyglucosamine as follows; the animals of group B were dosed with 2 tablets of 500 mg formoline […] (1 g formoline […] in total) followed by approximately 10 ml of water via a syringe. The 2 tablets of polyglucosamine were inserted into 2 gelatine capsules. The minipigs were trained to eat these capsules. Thereafter, animals of both groups were allowed to drink water ad libitum. […] One animal of the control group A was inadequately dosed and was omitted from the experiment. The dosing capsules were prepared the day before the dose administration based on the bodyweight determined shortly before dosing and stored under nitrogen and protected from light at 2-10 °C. Immediately following dosing all animals received approximately 10 ml of water via a syringe. After 15 min, animals were allowed to drink water and eat their morning meal. This meal was eaten within a few minutes. The animals were housed in stainless steel metabolism cages under test conditions, 48 h prior to the experimental start date (dosing). Urine and faeces was collected at ambient temperature at 24 h time intervals, starting at 2 days prior to dosing and ending at 144 h post-dose. At each collection period, the cage was rinsed with 100 mL demi-water. […] The cannula was rinsed with physiological saline after each blood sampling. After the last blood sampling of the day the cannula was filled with 3 % poly vinyl pyrrolidone (PVP) and heparin, and closed with a lid. Subsamples of whole blood were collected for analysis and the remaining blood was used for preparation of plasma by centrifugation for 10 min at 2000 g. At the end of the experiment, the cages were rinsed thoroughly with water/ethanol/Triton X-100 (100/100/1; v/v/v). The minipigs were intravenously anaesthetized via the catheter with 60 mg sodium-pentobarbital per kg bodyweight. Next, the animals were sacrificed by exsanguination from the carotid artery. At sacrifice, the complete liver and contents of the gastrointestinal tract were collected. Prior to analysis of radioactivity, the faeces, liver and contents of the gastrointestinal tract were homogenized using an ultrathurrax. Radioactivity in all samples was determined by liquid scintillation counting on a Tri-Carb 3100TR liquid scintillation counter using QuantaSmartTM software. All counts were converted to DPM using tSIE/AEC (transformed Spectral Index of external standards coupled to Automatic Efficiency Correction). Radioactivity in faeces, blood and liver tissue was determined by combustion analysis using a Packard Sample Oxidizer System 307. The CO2 formed was mixed with CarbosorbTM and PermafluorTM and measured by LSC. Kinetic analysis of radioactivity (blood/plasma) was performed using WinNonlin® 6.3 applying non-compartmental model analysis. The following kinetic parameters were calculated where the data allow: Cmax, Tmax, half-life (t1/2), the volume of distribution, clearance, the Area under the concentration-time curve (AUC) (or AUC0-n, AUC0-∞) and the Mean Residence Time (MRT). Statistical analysis was assessed by using Mann-Whitney U-test (non-parametric test) using the Brightstat.

[3] = Recovery of radioactivity in excreta (urine, faeces, cage wash), liver and gastrointestinal tract contents; type: in vivo, female Göttingen minipigs
Method: The study consisted of two treatment groups, each consisting of six female Göttingen minipigs. Group A served as the untreated group (control) and group B was pre-treated with polyglucosamine as follows; the animals of group B were dosed with 2 tablets of 500 mg formoline […] (1 g formoline […] in total) followed by approximately 10 ml of water via a syringe. The 2 tablets of polyglucosamine were inserted into 2 gelatine capsules. The minipigs were trained to eat these capsules. Thereafter, animals of both groups were allowed to drink water ad libitum. […] The dosing capsules were prepared the day before the dose administration based on the bodyweight determined shortly before dosing and stored under nitrogen and protected from light at 2-10 °C. Immediately following dosing all animals received approximately 10 ml of water via a syringe. After 15 min, animals were allowed to drink water and eat their morning meal. […] The animals were housed in stainless steel metabolism cages under test conditions, 48 h prior to the experimental start date (dosing). Urine and faeces was collected at ambient temperature at 24 h time intervals, starting at 2 days prior to dosing and ending at 144 h post-dose. At each collection period, the cage was rinsed with 100 mL demi-water. […] The cannula was rinsed with physiological saline after each blood sampling. After the last blood sampling of the day the cannula was filled with 3 % poly vinyl pyrrolidone (PVP) and heparin, and closed with a lid. Subsamples of whole blood were collected for analysis and the remaining blood was used for preparation of plasma by centrifugation for 10 min at 2000 g. At the end of the experiment, the cages were rinsed thoroughly with water/ethanol/Triton X-100 (100/100/1; v/v/v). The minipigs were intravenously anaesthetized via the catheter with 60 mg sodium-pentobarbital per kg bodyweight. Next, the animals were sacrificed by exsanguination from the carotid artery. At sacrifice, the complete liver and contents of the gastrointestinal tract were collected. Prior to analysis of radioactivity, the faeces, liver and contents of the gastrointestinal tract were homogenized using an ultrathurrax. Radioactivity in all samples was determined by liquid scintillation counting on a Tri-Carb 3100TR liquid scintillation counter using QuantaSmartTM software. All counts were converted to DPM using tSIE/AEC (transformed Spectral Index of external standards coupled to Automatic Efficiency Correction). Radioactivity in faeces, blood and liver tissue was determined by combustion analysis using a Packard Sample Oxidizer System 307. The CO2 formed was mixed with CarbosorbTM and PermafluorTM and measured by LSC.

[4] = untreated minipigs, not a mass-balance study
[5] = up to 144 h post-dose, group A untreated, mean ± SD

## CCCCCCCC/C=C\CCCCCCCC(=O)O [oleic acid]
[1]; 31 test persons with normal fat assimilation, oral doses, radioactively labelled, after 6 days
  Excreted in the faeces: less than 10%
[1]; untreated subjects
  Absorption after oral administration: absorbed practically completely

## CCCCCCCC/C=[14CH]\CCCCCCCC(=O)O [[9-^14C]-oleic acid]
[2]; blood
  AUC(0-12h): 40.0 ± 4.8 µg·h/g
  AUC(0-24h): 61.7 ± 13.1 µg·h/g
  AUC(0-48h): 88.3 ± 19.0 µg·h/g
  AUC(0-60h): 97.2 ± 20.6 µg·h/g
  AUC(0-72h): 105 ± 22 µg·h/g
  AUCall(0-144h): 139 ± 25 µg·h/g
  Cl: 48.4 ± 7.9 g/h/kg
  Cmax ([9-14C]-oleic acid and/or its metabolites): 8.5 ± 2.2 µg/g
  MRTlast: 43.6 ± 3.1 h
  Tmax ([9-14C]-oleic acid and/or its metabolites): 4 ± 3 h
  Vz: 8860 ± 1848 g/kg
[2]; plasma
  AUC(0-12h): 65.6 ± 6.0 µg·h/g
  AUC(0-24h): 98.4 ± 17.2 µg·h/g
  AUC(0-48h): 136 ± 28 µg·h/g
  AUC(0-60h): 148 ± 31 µg·h/g
  AUC(0-72h): 157 ± 32 µg·h/g
  AUCall(0-144h): 190 ± 38 µg·h/g
  Cl: 40.7 ± 5.5 g/h/kg
  Cmax ([9-14C]-oleic acid and/or its metabolites): 14.1 ± 3.6 µg/g
  MRTlast: 35.9 ± 1.8 h
  Tmax ([9-14C]-oleic acid and/or its metabolites): 4 ± 3 h
  Vz: 7008 ± 2962 g/kg
[3]; 0–24 h, group A untreated, mean ± SD
  Recovery of radioactivity in urine: 0.79 ± 0.05 % of the applied dose
[3]; 24–48 h, group A untreated, mean ± SD
  Recovery of radioactivity in urine: 0.28 ± 0.10 % of the applied dose
[3]; 48–72 h, group A untreated, mean ± SD
  Recovery of radioactivity in urine: 0.09 ± 0.08 % of the applied dose
[3]; 72–96 h, group A untreated, mean ± SD
  Recovery of radioactivity in urine: 0.08 ± 0.05 % of the applied dose
[3]; 96–120 h, group A untreated, mean ± SD
  Recovery of radioactivity in urine: 0.05 ± 0.03 % of the applied dose
[3]; 120–144 h, group A untreated, mean ± SD
  Recovery of radioactivity in urine: 0.03 ± 0.00 % of the applied dose
[3]; -24–0 h (pre-dose), group A untreated, mean ± SD
  Recovery of radioactivity in urine: 0.01 ± 0.00 % of the applied dose
[3]; -48–24 h (pre-dose), group A untreated, mean ± SD
  Recovery of radioactivity in urine: 0.00 ± 0.01 % of the applied dose
[3]; group A untreated, mean ± SD
  Recovery of radioactivity in Cagewash: 0.07 ± 0.07 % of the applied dose
  Recovery of radioactivity in GI-tract contents at sacrifice (144 h post-dose): 0.08 ± 0.04 % of the applied dose
  Recovery of radioactivity in Liver at sacrifice (144 h post-dose): 0.37 ± 0.07 % of the applied dose
  Total excreted (sum urine, faeces, cagewash): 7.90 ± 3.13 % of the applied dose
[3]; [4]
  Overall recovery of the dosed amount of radioactivity (based on the AUC0-12h): 34.7%
  Overall recovery of the dosed amount of radioactivity (based on the Cmax): 13.9%
[3]; [5]
  Recovery of radioactivity in faeces, Total: 6.51 ± 2.88 % of the applied dose
  Recovery of radioactivity in urine, Total: 1.33 ± 0.20 % of the applied dose
